# Entries after “also recorded” stand apart in the source; their conditions may differ.
# Assays:
# [1] = DMBA-initiated and TPA-promoted; cited from earlier work
# [2] = topical, complete carcinogenesis model; cited from earlier work
# [3] = system: mammalian glucose-6-phosphate dehydrogenase (G6PDH); details: cited from earlier work
# [4] = system: human lymphocytes (Epstein-Barr virus-induced transformation); details: cited from earlier work
# [5] = molecular target: purified bovine adrenal G6PDH (Bos taurus, UniProt F1MMK2); test: G6PDH inhibition test; format: biochemical; details: individual determinations
# Description: The compound listed below are screened as inhibitors of purified bovine adrenal G6PDH activity as one predictor of cancer preventive action. The assay for testing the inhibition of purified bovine adrenal G6PDH is according to the procedure by Oertell, G. W. and Rebelein, I. in Biochem. Biophys. Acta, 184, 459-460 (1969).
# [6] = Estrogenic and anti-estrogenic activity, uterine weight; format: in vivo, rat (female CD); details: Table 2a; 60 mg/kg s.c. for 3 days; control 1.95 ± 0.22; DHEA significantly greater than control, p < 0.001
# Procedure: Estrogenic and Anti-Estrogenic Activity
# Female CD rats, 26-27 days old, were injected subcutaneously for 3 days with one of the compounds of the present invention at 60 mg/kg in propylene glycol. Controls received propylene glycol alone. On the 4th day, the rats were killed and the uteri were dissected out and weighed.
# [7] = system: mouse epidermis (TPA stimulated 3H-thymidine incorporation); test: TPA stimulation of 3H-thymidine incorporation in mouse epidermis, oral steroid; format: in vivo, mouse (male ICR); details: Table 9, no steroid 55.1, TPA alone 118
# Procedure: Tumor promoters, such as TPA, stimulate hyperplasia and DNA synthesis when applied to the skin, and it is believed that this stimulation is an important step in the enhancement of tumorigenesis.
# Male ICR mice were orally intubated with steroid suspended in sesame oil (0.5 ml/mouse) at the indicated dose. Mice not receiving steroid were given sesame oil alone. One hour later mice received topical application of TPA and 20 hours later the rate of ^3 H-thymidine incorporation into the epidermis was determined as described in Pashko, L. L., Schwartz, A. G., Abou-Gharbia, M., and Swern, D. (1981), Inhibition of DNA synthesis in mouse epidermis and breast epithelium by dehydroepiandrosterone and related steroids, Carcinogenesis, 2,-717-721.
# Experimental conditions are the same as in Table 3.
# [8] = system: mouse skin DNA; test: (3H) DMBA binding to skin DNA; format: in vivo, mouse (A/J); details: oral, mice, doses well below 400 mg/kg
# [9] = Anti-obesity action, body weight, female Balb/c mice; format: in vivo, mouse (female Balb/c); details: 0.25% in diet
# Procedure: Female Balb/c (8 weeks old) mice were obtained from
# the Jackson Laboratory and were housed in polycarbonate cages
# (6 mice/cage) in animal quarters maintained at 24 ± 1° C. with
# 12 hours of light and 12 hours of darkness each day. One
# week after arrival, the mice were placed on a diet containing
# either DHEA, 8354, or without steroid. Animals were weighed
# [10] = Liver weight after three weeks of diet treatment; format: in vivo, mouse (female Balb/c); details: 0.25% of diet
# Procedure: (§1) Female Balb/c mice were housed in polycarbonate cages (6/mice/cage) in animal quarters maintained at 24°±1° C. with 12 hours of light and 12 hours of dark each day. The mice were placed on a diet containing either DHEA, 8354, A, B clofibrate or with no addition. Three weeks later the mice were killed, the livers were perfused with cold saline, weighed, and 5% liver homogenates were prepared for the determination of catalase activity by the spectrophotometric method of Luck (H. Luck, in Method in Enzyme Analysis, H. U. Bergmeyer, Ed. (Verlag Chemie, Weinheim/Bergstrasse, Germany, 1965)). Total protein was measured by the method of Lowry, et al. (O. H. Lowry, N. J. Rosebrough, A. L. Farr, R. J. Randall, J. Biol. Chem., 193, 265 (1951)).
# [11] = system: liver catalase; test: Liver catalase activity after three weeks of diet treatment; format: in vivo, mouse (female Balb/c); details: 0.25% of diet
# Procedure: as §1
# [12] = Estrogenic / androgenic side-effects, general statements; details: in vivo
# [13] = Anti-weight effect in mice, general statements; format: in vivo, mouse
# Description: (Table 9 vs Table 5 and Table 6). […] Thus the cancer preventive the cancer preventive effect of DHEA may result indirectly from its anti-weight action rather than from a direct effect of DHEA or target cells.
# [14] = after carcinogen; cited from earlier work
# [15] = in vivo; cited from earlier work
# Chain of purified bovine adrenal G6PDH (F1MMK2 31-70): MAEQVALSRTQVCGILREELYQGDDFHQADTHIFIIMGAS
# Chain of purified bovine adrenal G6PDH (F1MMK2 101-575): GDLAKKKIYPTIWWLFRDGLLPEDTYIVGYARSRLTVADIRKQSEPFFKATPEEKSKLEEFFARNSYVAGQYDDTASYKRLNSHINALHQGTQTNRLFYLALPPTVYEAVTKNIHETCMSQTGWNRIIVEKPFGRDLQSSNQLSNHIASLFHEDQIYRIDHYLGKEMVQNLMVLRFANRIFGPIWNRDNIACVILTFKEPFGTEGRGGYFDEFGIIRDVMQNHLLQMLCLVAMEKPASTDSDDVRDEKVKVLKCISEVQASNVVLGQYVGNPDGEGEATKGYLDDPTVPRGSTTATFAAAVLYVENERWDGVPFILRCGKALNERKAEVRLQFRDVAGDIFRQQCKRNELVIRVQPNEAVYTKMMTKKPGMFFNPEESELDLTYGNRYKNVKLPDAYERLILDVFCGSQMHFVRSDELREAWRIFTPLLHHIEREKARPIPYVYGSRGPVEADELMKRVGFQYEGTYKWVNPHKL
structure (smiles),measurement,setting,value
C[C@H]1CC[C@@]2(C)C(=CC[C@@H]3[C@@H]2CC[C@]2(C)C(=O)CC[C@@H]32)C1 [3β-methylandrost-5-en-17-one],skin papilloma formation,[1],inhibit
same,DMBA produced papillomas and carcinomas,[2],inhibits DMBA produced papillomas and carcinomas
C[C@]12CC[C@H](O)C[C@@H]1CC[C@@H]1[C@@H]2CC[C@]2(C)C(=O)C(Br)C[C@@H]12 (some centres unmarked) [16-bromo-epiandrosterone],inhibition of mammalian G6PDH,[3],more potent inhibitor of mammalian G6PDH than DHEA
same,inhibition of Epstein-Barr virus-induced transformation,[4],inhibitors of Epstein-Barr virus-induced transformation of human lymphocytes
C[C@]12CCCCC1=CC[C@@H]1[C@@H]2CC[C@]2(C)C(=O)[C@H](F)C[C@@H]12 [Compound 8354],Percent Inhibition of G6PDH,[5]; 10^-5 M,83%
same,inhibition at 10 µM,"[5]; 10^-5 M, read-out: Percent Inhibition of G6PDH",79%
same,Percent Inhibition of G6PDH,[5]; 10^-6 M,77%
same,inhibition at 1 µM,"[5]; 10^-6 M, read-out: Percent Inhibition of G6PDH",75%
same,Mean Uterine Weigh ± S.D.,[6],1.93 ± 0.29
same,"SPECIFIC ACTIVITY, TPA stimulated 3H-thymidine incorporation",[7]; oral 25 mg/kg,47.9 ± 2.0 cpm/ug DNA
same,"SPECIFIC ACTIVITY, TPA stimulated 3H-thymidine incorporation",[7]; oral 50 mg/kg,36.2 ± 1.4 cpm/ug DNA
same,"SPECIFIC ACTIVITY, TPA stimulated 3H-thymidine incorporation",[7]; oral 100 mg/kg,15.0 ± 6.3 cpm/ug DNA
same,effect on 3H-DMBA binding to skin DNA,[8],inhibit ^3 H-DMBA binding to skin DNA
same,mean weekly weight ± S.D.,"[9]; week 0, control 17.5 ± 1.4",17.4 ± 0.6 grams
same,mean weekly weight ± S.D.,"[9]; week 1, control 19.9 ± 1.2",16.9 ± 1.0 grams
same,mean weekly weight ± S.D.,"[9]; week 2, control 20.6 ± 1.0",17.8 ± 0.8 grams
same,mean weekly weight ± S.D.,"[9]; week 3, control 21.8 ± 0.8",18.0 ± 1.3 grams
same,LIVER WEIGHT,"[10]; control 0.057 ± 0.006, DHEA p < 0.05, clofibrate p < 0.002 vs control",0.066 ± 0.005 gm/gm body weight
same,"liver weight, in words",[10]; mice,no effect on liver weight; also recorded: neither increased liver weight
same,CATALASE ACTIVITY,"[11]; control 31.1 ± 6.7, DHEA p < 0.05, clofibrate p < 0.001 vs control",29.2 ± 2.6 Units per mg protein
same,"catalase activity, in words",[11]; mice,no effect on liver weight or catalase activity
same,estrogenic and androgenic side-effects,[12],lacking the estrogenic and androgenic side-effects of DHEA
same,activity as an anti-obesity agent relative to DHEA,"[13]; mouse, in vivo",several times more active than DHEA as an anti-obesity agent
same,anti-weight effect at the cancer preventive dosages,"[13]; oral, mice",possible exception
CCCCC(CC)COC(=O)c1ccccc1C(=O)OCC(CC)CCCC (centres unmarked) [di(2-ethylhexyl)-phthalate],"liver basophilic lesions, enzyme-negative",[14],also produced
same,effect on liver (type of hepatomegaly),[15],Typical peroxisome proliferators

# Source: patent US5744462A, “Steroids useful as anti-cancer and anti-obesity agents” (Research Corporation Technologies, Inc., priority 1995, dated 1998)
